From paper PMC6651501, “Design, Synthesis and Biological Evaluation of Novel Osimertinib-Based HDAC and EGFR Dual Inhibitors” (Molecules, 2019)

Legend:
[1] = tested on: A549; assay: In vitro anti-proliferative MTT assay; type: cell-based; conditions: Homo sapiens, 72 h
[2] = tested on: PC-3; assay: In vitro anti-proliferative MTT assay; type: cell-based; conditions: Homo sapiens, 72 h
[3] = tested on: HeLa; assay: In vitro anti-proliferative MTT assay; conditions: Homo sapiens, 72 h, read-out: IC50 HeLa
Description: (§2) Cell proliferation assay was determined by the MTT (3-[4,5-dimethyl-2-thiazolyl]-2,5-diphenyl-2H-tetrazolium bromide) method. Briefly, cells were passaged the day before dosing into a 96-well plate, allowed to grow for 12 h, and then treated with different concentrations of compound for 72 h. A 0.5% MTT solution was added to each well. After incubation for another 4 h, formazan formed from MTT was extracted by adding 200 μL of DMSO. Absorbance was then determined using a microplate reader at 570 nm.

[4] = tested on: MDA-MB-231; assay: In vitro anti-proliferative MTT assay; conditions: Homo sapiens, MDA-MB-231, 72 h, read-out: IC50 MDA-MB-231
Description: as §2

[5] = tested on: MDA-MB-468; assay: In vitro anti-proliferative MTT assay; conditions: Homo sapiens, MDA-MB-468, 72 h, read-out: IC50 MDA-MB-468
Description: as §2

[6] = tested on: HT-29; assay: In vitro anti-proliferative MTT assay; conditions: Homo sapiens, HT-29, 72 h, read-out: IC50 HT-29
Description: as §2

[7] = tested on: KG-1; assay: In vitro anti-proliferative MTT assay; conditions: Homo sapiens, KG-1, 72 h, read-out: IC50 KG-1
Description: as §2

[8] = biological target: EGFR (T790M) (Homo sapiens, UniProt P00533, T790M); assay: In vitro EGFR inhibition, Kinase-Glo Plus luminescence kinase assay; type: biochemical; conditions: for inhibition at 1 µM: 1 μM compound, read-out: EGFR (T790M) Inhibition Rate at 1 μM; for IC50: 10 µM ATP
Sequence of EGFR (T790M) (P00533 25-1210 T790M): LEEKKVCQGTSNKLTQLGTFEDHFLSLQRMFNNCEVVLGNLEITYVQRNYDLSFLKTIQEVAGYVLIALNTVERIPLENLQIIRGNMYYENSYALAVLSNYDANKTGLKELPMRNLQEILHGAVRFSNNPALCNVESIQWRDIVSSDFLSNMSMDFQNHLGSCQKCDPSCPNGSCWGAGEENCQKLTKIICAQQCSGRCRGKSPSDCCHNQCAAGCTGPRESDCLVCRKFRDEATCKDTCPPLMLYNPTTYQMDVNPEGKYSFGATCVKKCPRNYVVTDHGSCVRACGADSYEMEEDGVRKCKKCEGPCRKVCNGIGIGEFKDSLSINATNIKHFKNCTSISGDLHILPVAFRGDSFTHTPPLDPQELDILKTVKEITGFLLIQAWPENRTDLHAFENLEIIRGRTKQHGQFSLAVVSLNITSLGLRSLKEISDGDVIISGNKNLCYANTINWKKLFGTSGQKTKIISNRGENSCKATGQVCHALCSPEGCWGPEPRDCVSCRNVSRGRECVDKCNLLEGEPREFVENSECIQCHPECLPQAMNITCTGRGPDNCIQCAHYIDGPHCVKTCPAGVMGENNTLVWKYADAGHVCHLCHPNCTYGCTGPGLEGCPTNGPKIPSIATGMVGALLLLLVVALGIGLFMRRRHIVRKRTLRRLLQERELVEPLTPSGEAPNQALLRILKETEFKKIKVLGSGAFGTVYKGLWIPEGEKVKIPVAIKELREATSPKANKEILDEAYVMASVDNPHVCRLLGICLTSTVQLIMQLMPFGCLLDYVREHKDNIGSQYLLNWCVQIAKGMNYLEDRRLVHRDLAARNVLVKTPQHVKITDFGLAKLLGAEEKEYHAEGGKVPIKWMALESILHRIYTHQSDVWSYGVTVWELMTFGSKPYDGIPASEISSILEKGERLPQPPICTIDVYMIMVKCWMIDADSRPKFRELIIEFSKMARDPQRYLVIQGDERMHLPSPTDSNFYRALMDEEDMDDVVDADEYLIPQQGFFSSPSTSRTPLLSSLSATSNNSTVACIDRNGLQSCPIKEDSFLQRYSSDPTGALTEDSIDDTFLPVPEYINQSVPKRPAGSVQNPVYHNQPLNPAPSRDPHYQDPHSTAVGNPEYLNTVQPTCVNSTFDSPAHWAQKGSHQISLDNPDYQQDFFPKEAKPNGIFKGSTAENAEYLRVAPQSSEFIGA
Description: (§1) The assay was performed using Kinase-Glo Plus luminescence kinase assay kit. All of the enzymatic reactions were conducted at 30 °C for 40 min. The 50 µL reaction mixture in assay buffer contained 10 µM ATP, EGFR kinases, and different concentrations of compounds. Kinase activity was measured by quantitating the amount of ATP remaining in solution following a kinase reaction. The luminescent signal from the assay is correlated with the amount of ATP present and is inversely correlated with the amount of kinase activity. The IC50 values were calculated using nonlinear regression with normalized dose−response fit using Prism GraphPad software (GraphPad Software, San Diego, CA, USA).

[9] = tested on: HDAC (HeLa cell nuclear extract, mainly contains HDAC1 and 2); assay: In vitro HDACs inhibition fluorescent assay (HeLa cell nuclear extract); conditions: read-out: HDAC IC50; HeLa cell nuclear extract as enzyme source
Description: The HDAC inhibitory activities of all the target compounds were evaluated using HeLa cell nuclear extract (mainly contains HDAC1 and 2) as enzyme source.
In brief, 10 μL of HeLa cell nuclear extract was mixed with different concentrations of tested compound (50 μL). […] The inhibition ratios were calculated from the fluorescence intensity readings of tested wells relative to those of control wells, and the IC50 values were calculated using a regression analysis of the concentration/inhibition data.

[10] = biological target: EGFR (WT) (Homo sapiens, UniProt P00533); assay: In vitro EGFR inhibition, Kinase-Glo Plus luminescence kinase assay; type: biochemical; conditions: 10 µM ATP
Sequence of EGFR (WT) (P00533 25-1210): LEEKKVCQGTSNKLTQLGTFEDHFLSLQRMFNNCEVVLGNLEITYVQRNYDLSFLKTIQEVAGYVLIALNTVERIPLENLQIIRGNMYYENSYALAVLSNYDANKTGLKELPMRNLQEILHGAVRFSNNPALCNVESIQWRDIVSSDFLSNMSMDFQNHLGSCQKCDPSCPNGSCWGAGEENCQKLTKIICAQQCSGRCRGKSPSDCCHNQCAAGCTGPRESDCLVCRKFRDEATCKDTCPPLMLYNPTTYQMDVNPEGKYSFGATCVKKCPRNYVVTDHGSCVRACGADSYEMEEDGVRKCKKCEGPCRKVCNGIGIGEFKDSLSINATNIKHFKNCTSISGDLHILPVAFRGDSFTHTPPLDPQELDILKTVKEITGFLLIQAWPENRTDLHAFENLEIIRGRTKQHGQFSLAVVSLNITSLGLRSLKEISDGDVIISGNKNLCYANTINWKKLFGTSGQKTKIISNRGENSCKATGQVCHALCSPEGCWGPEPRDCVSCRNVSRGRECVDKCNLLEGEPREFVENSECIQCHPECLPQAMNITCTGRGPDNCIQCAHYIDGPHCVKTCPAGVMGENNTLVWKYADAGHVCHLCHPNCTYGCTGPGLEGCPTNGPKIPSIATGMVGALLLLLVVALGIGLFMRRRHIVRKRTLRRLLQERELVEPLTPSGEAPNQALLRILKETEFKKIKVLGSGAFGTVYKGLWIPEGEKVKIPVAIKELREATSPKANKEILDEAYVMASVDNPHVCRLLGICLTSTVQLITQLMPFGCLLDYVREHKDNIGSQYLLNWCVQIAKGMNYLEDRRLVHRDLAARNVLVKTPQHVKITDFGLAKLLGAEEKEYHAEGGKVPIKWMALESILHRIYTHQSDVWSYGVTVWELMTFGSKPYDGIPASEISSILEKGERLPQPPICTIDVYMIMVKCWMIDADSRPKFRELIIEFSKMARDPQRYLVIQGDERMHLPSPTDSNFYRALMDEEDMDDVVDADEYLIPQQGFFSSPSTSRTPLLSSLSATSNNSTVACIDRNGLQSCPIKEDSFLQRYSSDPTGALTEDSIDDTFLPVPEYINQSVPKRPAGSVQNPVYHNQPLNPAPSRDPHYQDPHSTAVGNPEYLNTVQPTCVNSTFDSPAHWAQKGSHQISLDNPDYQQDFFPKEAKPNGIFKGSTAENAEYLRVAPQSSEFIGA
Description: as §1

[11] = tested on: thirteen cancer-related kinases; assay: Kinases inhibition assay (Eurofins Cerep, LANCE detection); type: biochemical, human; conditions: 100 nM compound, Figure 4
Description: Compound 9E was further tested against thirteen cancer-related kinases to characterize its protein kinase selective profile.
The kinase inhibition assays were performed by Eurofins Cerep Corporation in France. In brief, evaluation of the effects of compounds on the activity of the human kinases was quantified by measuring the phosphorylation of the corresponding substrate using human recombinant enzymes and the LANCE detection method.

[12] = biological target: LSD1 (Homo sapiens, UniProt O60341); assay: Amplex red coupled LSD1 inhibition assay; type: biochemical; conditions: 10 μM compound
Description: Lysine specific demethylase 1 (LSD1, also known as KDM1A) is a kind of epigenetic eraser, which catalyzes the oxidative demethylation of histone 3 methyllysine 4 (H3K4me1) and histone 3 dimethyllysine 4 (H3K4me2). It has been reported that LSD1 is overexpressed in various cancer cells and tissues, and regarded as a potential anticancer target.
Amplex red coupled LSD1 inhibition assay was carried out following reported method. In brief, the compounds were incubated with the recombinant LSD1 and H3K4me2. After that, the fluorescence was measured at excitation wavelength 530 nm and emission wavelength 590 nm in order to evaluate the inhibition rate of the candidate compound.

[13] = biological target: T1, BRD4 (BD1) (Homo sapiens, UniProt O60885); assay: BRD4 inhibition assay (TR-FRET); type: binding; conditions: 1 μM compound
T1 construct: using the recombinant BRD4 (BD1) and its corresponding ligand (BET)
Description: The assay was performed by TR-FRET technology using the recombinant BRD4 (BD1) and its corresponding ligand (BET). The TR-FRET signal from the assay is correlated with the amount of ligand binding to the bromodomain. All of the binding reactions were conducted at room temperature. The 20 µL reaction mixture in assay buffer contained bromodomains, BET ligand and the indicated amount of inhibitor. For the negative control (blank), 5 µL of the assay buffer was added instead of the BET ligand. The reaction mixture was incubated for 120 min, then TR-FRET signal was measured using Tecan Infinite M1000 plate reader (Tecan, Männedorf, Switzerland).

Row | IC50 [1] | IC50 [3] | IC50 [4] | IC50 [5] | IC50 [6] | inhibition at 1 µM [8] | melting point | IC50 [9] | SMILES | IC50 [7] | also measured
1 | – | – | – | – | – | 37% | 146 to 148 °C | – | COc1cc(NC(=O)CCCC(=O)NO)ccc1Nc1nccc(-c2cn(C)c3ccccc23)n1 [Compound 9B, N^1-hydroxy-N^5-(3-methoxy-4-((4-(1-methyl-1H-indol-3-yl)pyrimidin-2-yl)amino)phenyl) glutaramide] | – | –
2 | – | – | – | – | – | 12% | 118 to 120 °C | 0.397 µM | COc1cc(NC(=O)CCCCC(=O)NO)ccc1Nc1nccc(-c2cn(C)c3ccccc23)n1 [Compound 9C, N^1-hydroxy-N^6-(3-methoxy-4-((4-(1-methyl-1H-indol-3-yl)pyrimidin-2-yl)amino)phenyl) adipamide] | – | –
3 | 5.11 µM | 5.64 µM | 3.69 µM | 1.07 µM | 4.13 µM | 13% | – | 0.121 µM | COc1cc(NC(=O)CCCCCC(=O)NO)ccc1Nc1nccc(-c2cn(C)c3ccccc23)n1 [Compound 9D, N^1-hydroxy-N^7-(3-methoxy-4-((4-(1-methyl-1H-indol-3-yl)pyrimidin-2-yl)amino)phenyl) heptanediamide] | 3.62 µM | IC50 [2]: 5.45 µM
4 | 2.19 µM | 1.85 µM | 0.6 µM | 0.23 µM | 0.79 µM | 15% | – | 0.085 µM | COc1cc(NC(=O)CCCCCCC(=O)NO)ccc1Nc1nccc(-c2cn(C)c3ccccc23)n1 [Compound 9E, N^1-hydroxy-N^8-(3-methoxy-4-((4-(1-methyl-1H-indol-3-yl)pyrimidin-2-yl)amino)phenyl) octanediamide] | 0.24 µM | IC50 [8]: 5 µM; IC50 [10]: 5.7 µM; IC50 [2]: 3.39 µM; Inhibition of 13 protein kinases at 100 nM [11]: no significant inhibition; LSD1 Inhibition Rate at 10 μM [12]: no significant inhibition; inhibition at 10 µM ([12]; read-out: LSD1 Inhibition Rate at 10 μM): 13%; BRD4 Inhibition Rate at 1 μM [13]: not active; inhibition at 1 µM ([13]; read-out: BRD4 Inhibition Rate at 1 μM): 0%
5 | – | – | – | – | – | 41% | 108 to 111 °C | – | Cn1cc(-c2ccnc(Nc3ccc(C(=O)NO)cc3)n2)c2ccccc21 [Compound 10A, N-hydroxy-4-((4-(1-methyl-1H-indol-3-yl)pyrimidin-2-yl)amino) benzamide] | – | –
6 | – | – | – | – | – | 40% | 164 to 168 °C | – | Cn1cc(-c2ccnc(Nc3ccc(C(=O)Nc4ccccc4N)cc3)n2)c2ccccc21 [Compound 10B, N-(2-aminophenyl)-4-((4-(1-methyl-1H-indol-3-yl)pyrimidin-2-yl)amino) benzamide] | – | –

The remaining lines, values behind:

Row | SMILES | IC50 [1] | IC50 [3] | IC50 [4] | IC50 [5] | IC50 [6] | inhibition at 1 µM [8] | melting point | IC50 [9] | IC50 [7] | also measured
7 | C=CC(=O)Nc1cc(Nc2nccc(-c3cn(C)c4ccccc34)n2)c(OC)cc1N(C)CCN(C)C [AZD9291, osimertinib] | 1.97 µM | 3.27 µM | 3.54 µM | 1.3 µM | 0.87 µM | – | – | – | 0.53 µM | IC50 [2]: 1.23 µM
8 | Cn1cc(-c2ccnc(Nc3ccc(C(=O)NCCC(=O)NO)cc3)n2)c2ccccc21 [Compound 5A, N-(3-(hydroxyamino)-3-oxopropyl)-4-((4-(1-methyl-1H-indol-3-yl)pyrimidin-2-yl)amino) benzamide] | – | – | – | – | – | 36% | 164 to 167 °C | – | – | –
9 | Cn1cc(-c2ccnc(Nc3ccc(C(=O)NCCCC(=O)NO)cc3)n2)c2ccccc21 [Compound 5B, N-(4-(hydroxyamino)-4-oxobutyl)-4-((4-(1-methyl-1H-indol-3-yl)pyrimidin-2-yl)amino) benzamide] | – | – | – | – | – | 34% | 165 to 168 °C | – | – | –
10 | Cn1cc(-c2ccnc(Nc3ccc(C(=O)NCCCCC(=O)NO)cc3)n2)c2ccccc21 [Compound 5C, N-(5-(hydroxyamino)-5-oxopentyl)-4-((4-(1-methyl-1H-indol-3-yl)pyrimidin-2-yl)amino) benzamide] | – | – | – | – | – | 42% | 144 to 147 °C | 0.462 µM | – | –
11 | Cn1cc(-c2ccnc(Nc3ccc(C(=O)NCCCCCC(=O)NO)cc3)n2)c2ccccc21 [Compound 5D, N-(6-(hydroxyamino)-6-oxohexyl)-4-((4-(1-methyl-1H-indol-3-yl)pyrimidin-2-yl)amino) benzamide] | 3.56 µM | 4.06 µM | 1.16 µM | 0.66 µM | 2.94 µM | 35% | 168 to 170 °C | 0.023 µM | 1.47 µM | –
12 | Cn1cc(-c2ccnc(Nc3ccc(C(=O)NCCCCCCC(=O)NO)cc3)n2)c2ccccc21 [Compound 5E, N-(7-(hydroxyamino)-7-oxoheptyl)-4-((4-(1-methyl-1H-indol-3-yl)pyrimidin-2-yl)amino) benzamide] | 2.4 µM | 2.79 µM | 0.66 µM | 0.33 µM | 1.99 µM | 44% | 161 to 163 °C | 0.105 µM | 0.52 µM | IC50 [8]: 1.2 µM; IC50 [10]: 3.2 µM; IC50 [2]: 2.25 µM
13 | COc1cc(NC(=O)CCC(=O)NO)ccc1Nc1nccc(-c2cn(C)c3ccccc23)n1 [Compound 9A, N^1-hydroxy-N^4-(3-methoxy-4-((4-(1-methyl-1H-indol-3-yl)pyrimidin-2-yl)amino)phenyl) succinimide] | – | – | – | – | – | 38% | 151 to 153 °C | – | – | –
14 | O=C(CCCCCCC(=O)Nc1ccccc1)NO [SAHA, suberoylanilide hydroxamic acid, reference compound] | 2.13 µM | – | – | – | – | – | – | – | – | –
